In patent US9029391B2 (priority 2011, dated 2015):

These molecules were tested on HIV (assay: MT4 Assay (anti-HIV activity)). Conditions: Human immunodeficiency virus 1, 96 h, read-out: HIV MT4 Assay IC50, HTLV-1 transformed cell line MT-4, cell titer glo, 10 point dose response curve.
Format: cell-based
Procedure, shortened: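 MT-4 cells (HTLV-1 transformed) were used for antiviral activity and cytotoxicity, run in parallel, with luminescence read by CellTiter-Glo 96 hours later. Percent inhibition was expressed against the no-compound control. IC50s came from 10-point curves of 3-4-fold serial dilutions spanning >1000-fold.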
`COc1cc(-c2c(C(OC(C)(C)C)C(=O)O)n(C)c(=O)c3ccccc23)cc(OC)c1OC` (centres unmarked) [Example 27, 2-(tert-butoxy)-2-[2-methyl-1-oxo-4-(3,4,5-trimethoxyphenyl)-1,2-dihydroisoquinolin-3-yl]acetic acid] was tested, and the IC50 was 50 µM.
`CCn1c(C(OC(C)(C)C)C(=O)O)c(-c2ccc(C)c(C)c2)c2ccccc2c1=O` (centres unmarked) [Example 28, 2-(tert-butoxy)-2-[4-(3,4-dimethylphenyl)-2-ethyl-1-oxo-1,2-dihydroisoquinolin-3-yl]acetic acid] showed an IC50 of 6.13 µM.
For `Cn1c(C(OC(C)(C)C)C(=O)O)c(-c2cccc3ccccc23)c2ccccc2c1=O` (centres unmarked) [Example 29, 2-(tert-butoxy)-2-[2-methyl-4-(naphthalen-1-yl)-1-oxo-1,2-dihydroisoquinolin-3-yl]acetic acid], the IC50 was 8.3 µM.
Work on `CC(C)(C)OC(C(=O)O)c1c(-c2ccc3c(c2)CCCO3)c2ccccc2c(=O)n1C1CC1` (centres unmarked) [Example 30, 2-(tert-butoxy)-2-[2-cyclopropyl-4-(3,4-dihydro-2H-1-benzopyran-6-yl)-1-oxo-1,2-dihydroisoquinolin-3-yl]acetic acid] yielded an IC50 of 38.3 µM.
Molecule `COc1ccc(-c2c(C(OC(C)(C)C)C(=O)O)n(C)c(=O)c3ccccc23)c(C)c1` (centres unmarked) [Example 31, 2-(tert-butoxy)-2-[4-(4-methoxy-2-methylphenyl)-2-methyl-1-oxo-1,2-dihydroisoquinolin-3-yl]acetic acid] has an IC50 of 1.72 µM.
`COc1ccccc1-c1c(C(OC(C)(C)C)C(=O)O)n(C)c(=O)c2ccccc12` (centres unmarked) [Example 33, 2-(tert-butoxy)-2-[4-(2-methoxyphenyl)-2-methyl-1-oxo-1,2-dihydroisoquinolin-3-yl]acetic acid] gave an IC50 of 21.7 µM.
Work on `Cc1ccc(-c2c(C(OC(C)(C)C)C(=O)O)n(C)c(=O)c3ccccc23)c(C)c1` (centres unmarked) [Example 34, 2-(tert-butoxy)-2-[4-(2,4-dimethylphenyl)-2-methyl-1-oxo-1,2-dihydroisoquinolin-3-yl]acetic acid] yielded an IC50 of 0.41 µM.
Molecule `Cn1c(C(OC(C)(C)C)C(=O)O)c(-c2ccc3c(c2)CCCO3)c2cccc(F)c2c1=O` (centres unmarked) [Example 35, 2-(tert-butoxy)-2-[4-(3,4-dihydro-2H-1-benzopyran-6-yl)-8-fluoro-2-methyl-1-oxo-1,2-dihydroisoquinolin-3-yl]acetic acid] has an IC50 of 1.89 µM.
`Cn1c(C(OC(C)(C)C)C(=O)O)c(-c2ccc3c(c2)OCCC3)c2ccccc2c1=O` (centres unmarked) [Example 36, 2-(tert-butoxy)-2-[4-(3,4-dihydro-2H-1-benzopyran-7-yl)-2-methyl-1-oxo-1,2-dihydroisoquinolin-3-yl]acetic acid] showed an IC50 of 15 µM.
`Cn1c(C(OC(C)(C)C)C(=O)O)c(-c2ccc3c(c2Cl)OCCC3)c2ccccc2c1=O` (centres unmarked) [Example 37, 2-(tert-butoxy)-2-[4-(8-chloro-3,4-dihydro-2H-1-benzopyran-7-yl)-2-methyl-1-oxo-1,2-dihydroisoquinolin-3-yl]acetic acid] showed an IC50 of 33.2 µM.
In the case of `Cn1c(C(OC(C)(C)C)C(=O)O)c(-c2ccc(F)c(F)c2)c2ccccc2c1=O` (centres unmarked) [Example 38, 2-(tert-butoxy)-2-[4-(3,4-difluorophenyl)-2-methyl-1-oxo-1,2-dihydroisoquinolin-3-yl]acetic acid], the IC50 is reported as 2.41 µM.
`Cn1c(C(OC(C)(C)C)C(=O)O)c(-c2ccc3c(c2)CCCO3)c2ccccc2c1=O` (centres unmarked) [Example 39, 2-(tert-butoxy)-2-[4-(3,4-dihydro-2H-1-benzopyran-6-yl)-2-methyl-1-oxo-1,2-dihydroisoquinolin-3-yl]acetic acid] was tested, and the IC50 was 1.88 µM.
Molecule `Cn1c(C(OC(C)(C)C)C(=O)O)c(-c2cccc(F)c2)c2ccccc2c1=O` (centres unmarked) [Example 40, 2-(tert-butoxy)-2-[4-(3-fluorophenyl)-2-methyl-1-oxo-1,2-dihydroisoquinolin-3-yl]acetic acid] has an IC50 of 2.18 µM.
`Cn1c(C(OC(C)(C)C)C(=O)O)c(-c2cccnc2)c2ccccc2c1=O` (centres unmarked) [Example 41, 2-(tert-butoxy)-2-[2-methyl-1-oxo-4-(pyridin-3-yl)-1,2-dihydroisoquinolin-3-yl]acetic acid] showed an IC50 of 50 µM.
Molecule `CCOc1ccc(-c2c(C(OC(C)(C)C)C(=O)O)n(C)c(=O)c3ccccc23)cc1` (centres unmarked) [Example 42, 2-(tert-butoxy)-2-[4-(4-ethoxyphenyl)-2-methyl-1-oxo-1,2-dihydroisoquinolin-3-yl]acetic acid] has an IC50 of 33.3 µM.
`Cc1cc(C)c(-c2c(C(OC(C)(C)C)C(=O)O)n(C)c(=O)c3ccccc23)cc1C` (centres unmarked) [Example 43, 2-(tert-butoxy)-2-[2-methyl-1-oxo-4-(2,4,5-trimethylphenyl)-1,2-dihydroisoquinolin-3-yl]acetic acid] gave an IC50 of 0.37 µM.
`CCCOc1ccc(-c2c(C(OC(C)(C)C)C(=O)O)n(C)c(=O)c3ccccc23)cc1` (centres unmarked) [Example 44, 2-(tert-butoxy)-2-[2-methyl-1-oxo-4-(4-propoxyphenyl)-1,2-dihydroisoquinolin-3-yl]acetic acid] gave an IC50 of 38.9 µM.
`CC(C)Oc1ccc(-c2c(C(OC(C)(C)C)C(=O)O)n(C)c(=O)c3ccccc23)cc1` (centres unmarked) [Example 45, 2-(tert-butoxy)-2-{2-methyl-1-oxo-4-[4-(propan-2-yloxy)phenyl]-1,2-dihydroisoquinolin-3-yl}acetic acid] gave an IC50 of 50 µM.
`Cn1c(C(OC(C)(C)C)C(=O)O)c(-c2ccc(F)cc2F)c2ccccc2c1=O` (centres unmarked) [Example 46, 2-(tert-butoxy)-2-[4-(2,4-difluorophenyl)-2-methyl-1-oxo-1,2-dihydroisoquinolin-3-yl]acetic acid] showed an IC50 of 1.57 µM.
For `CCc1ccc(-c2c(C(OC(C)(C)C)C(=O)O)n(C)c(=O)c3ccccc23)cc1` (centres unmarked) [Example 47, 2-(tert-butoxy)-2-[4-(4-ethylphenyl)-2-methyl-1-oxo-1,2-dihydroisoquinolin-3-yl]acetic acid], the IC50 was 1.85 µM.
`Cn1c(C(OC(C)(C)C)C(=O)O)c(-c2ccncc2)c2ccccc2c1=O` (centres unmarked) [Example 48, 2-(tert-butoxy)-2-[2-methyl-1-oxo-4-(pyridin-4-yl)-1,2-dihydroisoquinolin-3-yl]acetic acid] was tested, and the IC50 was 50 µM.
`COCc1ccc(-c2c(C(OC(C)(C)C)C(=O)O)n(C)c(=O)c3ccccc23)cc1` (centres unmarked) [Example 49, 2-(tert-butoxy)-2-{4-[4-(methoxymethyl)phenyl]-2-methyl-1-oxo-1,2-dihydroisoquinolin-3-yl}acetic acid] gave an IC50 of 15.6 µM.
`COc1ccc(-c2c(C(OC(C)(C)C)C(=O)O)n(C)c(=O)c3ccccc23)cc1OC` (centres unmarked) [Example 50, 2-(tert-butoxy)-2-[4-(3,4-dimethoxyphenyl)-2-methyl-1-oxo-1,2-dihydroisoquinolin-3-yl]acetic acid] was tested, and the IC50 was 25.6 µM.
In the case of `Cn1c(C(OC(C)(C)C)C(=O)O)c(-c2ccc3c(c2)OCO3)c2ccccc2c1=O` (centres unmarked) [Example 51, 2-[4-(2H-1,3-benzodioxol-5-yl)-2-methyl-1-oxo-1,2-dihydroisoquinolin-3-yl]-2-(tert-butoxy)acetic acid], the IC50 is reported as 5.3 µM.
Molecule `COc1cc(-c2c(C(OC(C)(C)C)C(=O)O)n(C)c(=O)c3ccccc23)ccc1C` (centres unmarked) [Example 52, 2-(tert-butoxy)-2-[4-(3-methoxy-4-methylphenyl)-2-methyl-1-oxo-1,2-dihydroisoquinolin-3-yl]acetic acid] has an IC50 of 3.12 µM.
`Cn1c(C(OC(C)(C)C)C(=O)O)c(-c2ccc3c(c2)OCCO3)c2ccccc2c1=O` (centres unmarked) [Example 53, 2-(tert-butoxy)-2-[4-(2,3-dihydro-1,4-benzodioxin-6-yl)-2-methyl-1-oxo-1,2-dihydroisoquinolin-3-yl]acetic acid] gave an IC50 of 2.46 µM.
Molecule `COc1ccc(-c2c(C(OC(C)(C)C)C(=O)O)n(C)c(=O)c3ccccc23)cc1C` (centres unmarked) [Example 54, 2-(tert-butoxy)-2-[4-(4-methoxy-3-methylphenyl)-2-methyl-1-oxo-1,2-dihydroisoquinolin-3-yl]acetic acid] has an IC50 of 12.3 µM.
`Cc1ccc2c(=O)n(C)c(C(OC(C)(C)C)C(=O)O)c(-c3ccc(C)c(C)c3)c2c1` (centres unmarked) [Example 55, 2-(tert-butoxy)-2-[4-(3,4-dimethylphenyl)-2,6-dimethyl-1-oxo-1,2-dihydroisoquinolin-3-yl]acetic acid] showed an IC50 of 2.56 µM.
For `Cc1ccc(-c2c(C(OC(C)(C)C)C(=O)O)n(C)c(=O)c3ccc(F)cc23)cc1C` (centres unmarked) [Example 56, 2-(tert-butoxy)-2-[4-(3,4-dimethylphenyl)-6-fluoro-2-methyl-1-oxo-1,2-dihydroisoquinolin-3-yl]acetic acid], the IC50 was 1.68 µM.
In the case of `Cn1c(C(OC(C)(C)C)C(=O)O)c(-c2ccc3c(c2)CCCO3)c2ccc(F)cc2c1=O` (centres unmarked) [Example 57, 2-(tert-butoxy)-2-[4-(3,4-dihydro-2H-1-benzopyran-6-yl)-7-fluoro-2-methyl-1-oxo-1,2-dihydroisoquinolin-3-yl]acetic acid], the IC50 is reported as 1.65 µM.
In the case of `Cc1ccc2c(-c3ccc4c(c3)CCCO4)c(C(OC(C)(C)C)C(=O)O)n(C)c(=O)c2c1` (centres unmarked) [Example 58, 2-(tert-butoxy)-2-[4-(3,4-dihydro-2H-1-benzopyran-6-yl)-2,7-dimethyl-1-oxo-1,2-dihydroisoquinolin-3-yl]acetic acid], the IC50 is reported as 0.37 µM.
In the case of `Cc1ccc(-c2c(C(OC(C)(C)C)C(=O)O)n(C)c(=O)c3c(F)cccc23)cc1C` (centres unmarked) [Example 59, 2-(tert-butoxy)-2-[4-(3,4-dimethylphenyl)-8-fluoro-2-methyl-1-oxo-1,2-dihydroisoquinolin-3-yl]acetic acid], the IC50 is reported as 2.18 µM.
`Cc1ccc2c(-c3ccc(C)c(C)c3)c(C(OC(C)(C)C)C(=O)O)n(C)c(=O)c2c1` (centres unmarked) [Example 60, 2-(tert-butoxy)-2-[4-(3,4-dimethylphenyl)-2,7-dimethyl-1-oxo-1,2-dihydroisoquinolin-3-yl]acetic acid] gave an IC50 of 1.29 µM.
With `Cn1c(C(OC(C)(C)C)C(=O)O)c(-c2ccc3c(c2)OCCCO3)c2ccccc2c1=O` (centres unmarked) [Example 61, 2-(tert-butoxy)-2-[4-(3,4-dihydro-2H-1,5-benzodioxepin-7-yl)-2-methyl-1-oxo-1,2-dihydroisoquinolin-3-yl]acetic acid] the IC50 was 8.7 µM.
For `Cn1c(C(OC(C)(C)C)C(=O)O)c(-c2ccc3ncccc3c2)c2ccccc2c1=O` (centres unmarked) [Example 62, 2-(tert-butoxy)-2-[2-methyl-1-oxo-4-(quinolin-6-yl)-1,2-dihydroisoquinolin-3-yl]acetic acid], the IC50 was 11.1 µM.
